Activity calls are given as the source filed them. No cut-off for these calls is given here.
What was measured:
Pyruvate kinase PKM [1] = target: T1, Pyruvate kinase PKM (Homo sapiens, UniProt P14618); test: Activation of PKM2 in siRNA mediated PKM2 knockdown human NCI-H1975 cells at 1 to 2 micromol/L by Western blot analysis; format: cell-based; conditions: dose 1-2 µmol/L
NCI-H1975 [2] = test: Induction of apoptosis in human NCI-H1975 cells transfected with siRNA assessed as late apoptotic cells at 1 micromol/L incubated for 24 hrs by Annexin V-FITC/PI staining based analysis (reference value: 4.03%); format: functional; conditions: dose 1 µmol/L, at 1 µM
NCI-H1975 [3] = test: Induction of apoptosis in human NCI-H1975 cells with siRNA mediated […] knockdown assessed as early apoptotic cells at 2 micromol/L incubated for 24 hrs by Annexin V-FITC/PI staining based analysis (reference value: 2.54%); format: functional; conditions: dose 2 µmol/L, at 2 µM
NCI-H1975 [4] = test: Antiproliferative activity against human NCI-H1975 cells assessed as inhibition of clone formation rate; format: functional, cell-based
HCC827 [5] = test: Effect on PKM2 protein expression in human HCC827 cells at 1 to 2 micromol/L by Western blot analysis; format: functional, cell-based; conditions: dose 1-2 µmol/L
NCI-H1975 [6] = test: Induction of apoptosis in human NCI-H1975 cells assessed as early apoptotic cells at 1 micromol/L incubated for 24 hrs by Annexin V-FITC/PI staining based analysis (reference value: 1.88%); format: functional; conditions: dose 1 µmol/L, at 1 µM
HCC827 [7] = test: Induction of intracellular ROS accumulation in human HCC827 cells; format: functional, cell-based
NCI-H1975 [8] = test: Effect on PKM2 protein expression in human NCI-H1975 cells at 1 to 2 micromol/L by Western blot analysis; format: functional, cell-based; conditions: dose 1-2 µmol/L
NCI-H1975 [9] = test: cells; format: functional, cell-based; conditions: Homo sapiens, NCI-H1975, 24 h
Description: Antiproliferative activity against human NCI-H1975 cells assessed as inhibition of cell growth incubated for 24 hrs by CCK-8 assay

NCI-H1299 [10] = test: Induction of intracellular ROS accumulation in human NCI-H1299 cells; format: functional, cell-based
NCI-H1975 [11] = test: Induction of apoptosis in human NCI-H1975 cells assessed as late apoptotic cells at 1 micromol/L incubated for 24 hrs by Annexin V-FITC/PI staining based analysis (reference value: 2.66%); format: functional; conditions: dose 1 µmol/L, at 1 µM
NCI-H1975 [12] = test: Induction of oxidative phosphorylation in human NCI-H1975 cells assessed as increase in ATP production by luminescence based assay; format: functional, cell-based
NCI-H1975 [13] = test: Antitumor activity against human NCI-H1975 cells xenografted in athymic nu/nu mouse assessed as damage in tumor tissue at 2.4 to 4.8 mg/kg, ip administered every 2 days for 11 days by H and E staining based analysis; format: functional, organism-based; conditions: dose 2.4-4.8 mg/kg, time 11.0 day
NCI-H1299 [14] = test: Induction of apoptosis in human NCI-H1299 cells assessed as late apoptotic cells at 1 micromol/L incubated for 24 hrs by Annexin V-FITC/PI staining based analysis (reference value: 14.9%); format: functional; conditions: dose 1 µmol/L, at 1 µM
HCC827 [15] = test: Downregulation of PDK1 protein expression in human HCC827 cells at 1 to 2 micromol/L by Western blot analysis; format: functional, cell-based; conditions: dose 1-2 µmol/L
NCI-H1975 [16] = test: Antiproliferative activity against siRNA mediated PKM2 knockdown human NCI-H1975 cells assessed as inhibition of cell growth incubated for 24 hrs by CCK-8 assay; format: functional, cell-based; conditions: NCI-H1975, 24 h
HCC827 [17] = test: Antiproliferative activity against human HCC827 cells transfected with siRNA assessed as inhibition of cell growth incubated for 24 hrs by CCK-8 assay; format: functional, cell-based; conditions: HCC827, 24 h
in vitro = conditions: human, HEK293T cells
Description: Cytotoxicity against HEK293T cells assessed as inhibition of cell growth incubated for 24 hrs by CCK-8 assay

NCI-H1975 [18] = test: Inhibition of glycolysis in human NCI-H1975 cells assessed as reduction in lactate production incubated for 1 hrs by colorimetric assay; format: functional, cell-based
A549 [19] = test: Induction of apoptosis in human A549 cells assessed as early apoptotic cells at 2 micromol/L incubated for 24 hrs by Annexin V-FITC/PI staining based analysis (reference value: […]%); format: functional; conditions: dose 2 µmol/L
NCI-H1975 [20] = test: Downregulation of PDK1 protein expression in human NCI-H1975 cells at 1 to 2 micromol/L by Western blot analysis; format: functional, cell-based; conditions: dose 1-2 µmol/L
NCI-H1975 [21] = test: Synergistic antiproliferative activity against human NCI-H1975 cells harboring EGFR mutant assessed as cell growth inhibition at 0.5 to 4 micromol/L incubated for 24 hrs in presence of 2.5 to 20 micromol/L gefitinib by CCK-8 assay; format: functional, cell-based; conditions: dose 0.5-4 µmol/L
NCI-H1975 [22] = test: Antiproliferative activity against siRNA mediated […] knockdown human NCI-H1975 cells assessed as inhibition of cell growth incubated for 24 hrs by CCK-8 assay; format: functional, cell-based; conditions: NCI-H1975, 24 h
[23] = target: [Pyruvate dehydrogenase (acetyl-transferring)] kinase isozyme 1, mitochondrial (Homo sapiens, UniProt Q15118); test: Inhibition of PDK1 in human NCI-H1975 cells at 1 to 2 micromol/L by Western blot analysis; format: cell-based; conditions: dose 1-2 µmol/L
A549 [24] = test: Induction of intracellular ROS accumulation in human A549 cells; format: functional, cell-based
NCI-H1975 [25] = test: Induction of apoptosis in human NCI-H1975 cells assessed as early apoptotic cells at 0.5 micromol/L incubated for 24 hrs by Annexin V-FITC/PI staining based analysis (reference value: 2.55%); format: functional; conditions: dose 0.5 µmol/L, at 0.5 µM
Pyruvate kinase PKM [26] = target: T1, Pyruvate kinase PKM; test: Activation of PKM2 in siRNA mediated PKM2 knockdown human HCC827 cells at 1 to 2 micromol/L by Western blot analysis; format: cell-based; conditions: dose 1-2 µmol/L
NCI-H1975 [27] = test: Induction of apoptosis in human NCI-H1975 cells assessed as regulation of cleaved Caspase-9 expression by Western blot analysis; format: functional, cell-based
NCI-H1975 [28] = test: Induction of apoptosis in human NCI-H1975 cells assessed as regulation of Fas expression by Western blot analysis; format: functional, cell-based
NCI-H1975 [29] = test: Induction of apoptosis in human NCI-H1975 cells assessed as regulation of cleaved PARP expression by Western blot analysis; format: functional, cell-based
NCI-H1975 [30] = test: Induction of apoptosis in human NCI-H1975 cells transfected with siRNA assessed as late apoptotic cells at 2 micromol/L incubated for 24 hrs by Annexin V-FITC/PI staining based analysis (reference value: 4.03%); format: functional; conditions: dose 2 µmol/L, at 2 µM
NCI-H1975 [31] = test: Induction of mitochondrial transmembrane potential dissipation in human NCI-H1975 cells assessed as cells with low mitochondrial transmembrane potential at 1 micromol/L by FL-1/FL-2 channel based fluorescence analysis (reference value: 2.13%); format: functional; conditions: dose 1 µmol/L; at 1 µM
A549 [32] = test: cells; format: functional, cell-based; conditions: Homo sapiens, A549, 24 h
Description: Antiproliferative activity against human A549 cells assessed as inhibition of cell growth incubated for 24 hrs by CCK-8 assay

NCI-H1975 [33] = test: Induction of apoptosis in human NCI-H1975 cells transfected with siRNA assessed as early apoptotic cells at 2 micromol/L incubated for 24 hrs by Annexin V-FITC/PI staining based analysis (reference value: 1.16%); format: functional; conditions: dose 2 µmol/L, at 2 µM
NCI-H1975 [34] = test: Induction of apoptosis in human NCI-H1975 cells assessed as regulation of Smac expression by Western blot analysis; format: functional, cell-based
HCC827 [35] = test: Induction of apoptosis in human HCC827 cells assessed as early apoptotic cells at 1 micromol/L incubated for 24 hrs by Annexin V-FITC/PI staining based analysis (reference value: 9.14%); format: functional; conditions: dose 1 µmol/L, at 1 µM
Pyruvate kinase PKM [36] = target: T1, Pyruvate kinase PKM; test: Activation of PKM2 in human HCC827 cells at 1 to 2 micromol/L by Western blot analysis; format: cell-based; conditions: filed as activator, dose 1-2 µmol/L

T1 sequence (P14618 2-531 limits assumed): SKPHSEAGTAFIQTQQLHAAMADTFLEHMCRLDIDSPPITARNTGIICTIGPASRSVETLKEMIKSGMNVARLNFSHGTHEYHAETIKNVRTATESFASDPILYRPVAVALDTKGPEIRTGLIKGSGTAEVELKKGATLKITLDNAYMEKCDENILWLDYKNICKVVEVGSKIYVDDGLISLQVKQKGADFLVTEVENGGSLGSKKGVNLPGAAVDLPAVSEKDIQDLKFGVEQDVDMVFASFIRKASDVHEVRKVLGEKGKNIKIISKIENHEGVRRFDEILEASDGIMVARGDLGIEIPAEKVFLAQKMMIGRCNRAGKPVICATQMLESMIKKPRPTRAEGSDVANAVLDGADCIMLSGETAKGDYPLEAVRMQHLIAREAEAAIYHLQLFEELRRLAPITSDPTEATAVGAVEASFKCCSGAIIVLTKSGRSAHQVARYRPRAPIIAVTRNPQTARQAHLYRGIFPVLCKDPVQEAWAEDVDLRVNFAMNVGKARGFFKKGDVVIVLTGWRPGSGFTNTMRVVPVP

COC(=O)[C@H](CS[C@H](CC=C(C)C)C1=CC(=O)c2c(O)ccc(O)c2C1=O)NC(=O)CCCC[C@@H]1CCSC(c2ccccc2C)S1 (some centres not stated)
Activity (Pyruvate kinase PKM [1]): inactive
Activity (NCI-H1975 [2]): 7.86%
Activity (NCI-H1975 [3]): 2.67%
Activity (NCI-H1975 [4]): Dose-Dependent Effect
Activity (HCC827 [5]): inactive
Activity (NCI-H1975 [6]): 3.84%
Activity (HCC827 [7]): Active
Activity (NCI-H1975 [8]): inactive
IC50 (NCI-H1975 [9]): 1.51 µM
Activity (NCI-H1299 [10]): Active
Activity (NCI-H1975 [11]): 23.6%
Activity (NCI-H1975 [12]): Active
Activity (NCI-H1975 [13]): Active
Activity (NCI-H1299 [14]): 16.7%
Activity (HCC827 [15]): inactive
IC50 (NCI-H1975 [16]): 8 µM
IC50 (HCC827 [17]): 6 µM
IC50 at 24 h (in vitro): 99.5 µM
inhibition (NCI-H1975 [18]): Active
Activity (A549 [19]): 11.8%
Activity (NCI-H1975 [20]): inactive
Activity (NCI-H1975 [21]): Active
IC50 (NCI-H1975 [22]): 9 µM
inhibition [23]: Active
Activity (A549 [24]): Active
Activity (NCI-H1975 [25]): 1.54%
Activity (Pyruvate kinase PKM [26]): inactive
Activity (NCI-H1975 [27]): Active
Activity (NCI-H1975 [28]): Active
Activity (NCI-H1975 [29]): Active
Activity (NCI-H1975 [30]): 9.4%
Activity (NCI-H1975 [31]): 11.8%
IC50 (A549 [32]): 6.26 µM
Activity (NCI-H1975 [33]): 8.24%
Activity (NCI-H1975 [34]): Active
Activity (HCC827 [35]): 16.5%
Activity (Pyruvate kinase PKM [36]): Active
